Here are results for one compound from BindingDB's records for doi:10.1016/j.bmcl.2017.10.053 (Vanderbilt University School of Medicine, 2017).

This assay has as its target T1, Muscarinic acetylcholine receptor M4 (Homo sapiens, UniProt P08173).
T1 sequence (P08173 whole entry): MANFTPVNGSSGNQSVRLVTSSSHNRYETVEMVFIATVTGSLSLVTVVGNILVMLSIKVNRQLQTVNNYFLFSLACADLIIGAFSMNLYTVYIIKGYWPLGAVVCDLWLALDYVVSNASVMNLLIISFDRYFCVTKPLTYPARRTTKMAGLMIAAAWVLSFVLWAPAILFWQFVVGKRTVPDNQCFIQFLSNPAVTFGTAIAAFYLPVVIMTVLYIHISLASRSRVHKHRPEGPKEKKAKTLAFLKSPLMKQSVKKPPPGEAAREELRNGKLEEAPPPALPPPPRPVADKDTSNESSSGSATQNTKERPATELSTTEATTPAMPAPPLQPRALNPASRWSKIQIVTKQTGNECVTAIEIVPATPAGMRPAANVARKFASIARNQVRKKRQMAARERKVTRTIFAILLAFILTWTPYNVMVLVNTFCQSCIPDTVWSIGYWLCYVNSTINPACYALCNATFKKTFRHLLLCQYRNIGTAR
The experiment in a line: Positive allosteric modulation of human M4 receptor expressed in CHO cells co-expressing Gqi5 assessed as increase in acetylcholine-induced calcium mobilization.

The term EC50 denotes the concentration at which the effect is half-maximal.

As for `Cc1nnc2sc(C(=O)N3CC4(CCN(c5cccnc5)C4)C3)c(N)c2c1C`, the EC50 was determined as 324 nM.
